These are literature values, as cited in patent US20230046278A1, “METHOD FOR COLOURING KERATIN MATERIAL, COMPRISING THE USE OF AN ORGANIC C1-C6 ALKOXYSILANE AND TWO STRUCTURALLY DIFFERENT CELLULOSE TYPES” (Henkel AG & Co. KGaA, priority 2019, published 2023).

The conditions of the series: 25° C.

Converted amounts (≈) assume the structure as drawn.

Regarding `CCN(Cc1cccc(S(=O)(=O)O)c1)c1ccc(C(=C2C=CC(=[N+](CC)Cc3cccc(S(=O)(=O)O)c3)C=C2)c2ccccc2S(=O)(=O)[O-])cc1` [Acid Blue 9], the water solubility result is on record as “greater than 20 % by weight”.
Take `O=S(=O)(O)c1ccc(N=Nc2c(O)ccc3ccccc23)cc1` [Acid Orange 7, 4-[(2-hydroxy-1-naphthyl)azo]benzenesulfonate]: the solubility in water result is reported as “more than 7 g/L”.
Consider `Nc1cc(S(=O)(=O)O)cc2cc(S(=O)(=O)O)c(N=Nc3ccccc3)c(O)c12` [Acid Red 33, 5-amino-4-hydroxy-3-(phenylazo)-naphthalene-2,7-disulphonate], for which the solubility in water is 2500 µg/mL (≈ 5.9 mM).
As for `O=[N+]([O-])c1cc([N+](=O)[O-])c2ccc(S(=O)(=O)O)cc2c1O` [Acid Yellow 9, 8-hydroxy-5,7-dinitro-2-naphthalenesulfonic acid], the solubility in water entry is reported as “above 40 g/L”.
On to `O=C(O)C1=NN(c2ccc(S(=O)(=O)O)cc2)C(=O)C1N=Nc1ccc(S(=O)(=O)O)cc1` (centres unmarked) [Acid Yellow 23, 4,5-dihydro-5-oxo-1-(4-sulfophenyl)-4-((4-sulfophenyl)azo)-1H-pyrazole-3-carboxylic acid], for which the “solubility in water (in words)” value is “readily soluble”.
